The values that follow come from patent US8034574B2, “Screening method for prokinetic agent” (Astellas Pharma Inc., priority 2006, dated 2011).

Entries after “also recorded” stand apart in the source; their conditions may differ. Where only a bound is given, the exact number is not on record here.

Test [1] relates to mouse ileum loop water secretion. The test can be described thus: Mouse gut water secretion (ileum loop). The format is in vivo. The conditions noted are these: 6 hours; for water secretion from the gut: mouse ileum loop, 10, 100, 1,000 μg. As for the experimental part:
Mice (ddy, male, 35-42 g, SLC), fasted overnight, were anesthetized with pentobarbital (50 mg/kg i.p.) and laparotomized, and ileum tissue about 2 cm in the vicinity of the cecum was ligated with a thread at both ends to prepare an ileum loop. […] After the administration, the gut was returned to the original position, and the abdominal muscle and the skin were sutured. Six hours after the treatment, each mouse was killed by cervical dislocation, after which the ileum loop was extirpated, and the content was weighed.

Test [2] deals with T1, human TRPA1 (polypeptide of SEQ ID NO:2) (Homo sapiens, UniProt O75762, K186N/R3C/R58T).
T1 construct: expressed in transfected cells; host or cells: CHO-K1 cells, transient transfection of the pcDNA3.1(+) human TRPA1 vector
T1 sequence (O75762 whole entry R3C/R58T/K186N): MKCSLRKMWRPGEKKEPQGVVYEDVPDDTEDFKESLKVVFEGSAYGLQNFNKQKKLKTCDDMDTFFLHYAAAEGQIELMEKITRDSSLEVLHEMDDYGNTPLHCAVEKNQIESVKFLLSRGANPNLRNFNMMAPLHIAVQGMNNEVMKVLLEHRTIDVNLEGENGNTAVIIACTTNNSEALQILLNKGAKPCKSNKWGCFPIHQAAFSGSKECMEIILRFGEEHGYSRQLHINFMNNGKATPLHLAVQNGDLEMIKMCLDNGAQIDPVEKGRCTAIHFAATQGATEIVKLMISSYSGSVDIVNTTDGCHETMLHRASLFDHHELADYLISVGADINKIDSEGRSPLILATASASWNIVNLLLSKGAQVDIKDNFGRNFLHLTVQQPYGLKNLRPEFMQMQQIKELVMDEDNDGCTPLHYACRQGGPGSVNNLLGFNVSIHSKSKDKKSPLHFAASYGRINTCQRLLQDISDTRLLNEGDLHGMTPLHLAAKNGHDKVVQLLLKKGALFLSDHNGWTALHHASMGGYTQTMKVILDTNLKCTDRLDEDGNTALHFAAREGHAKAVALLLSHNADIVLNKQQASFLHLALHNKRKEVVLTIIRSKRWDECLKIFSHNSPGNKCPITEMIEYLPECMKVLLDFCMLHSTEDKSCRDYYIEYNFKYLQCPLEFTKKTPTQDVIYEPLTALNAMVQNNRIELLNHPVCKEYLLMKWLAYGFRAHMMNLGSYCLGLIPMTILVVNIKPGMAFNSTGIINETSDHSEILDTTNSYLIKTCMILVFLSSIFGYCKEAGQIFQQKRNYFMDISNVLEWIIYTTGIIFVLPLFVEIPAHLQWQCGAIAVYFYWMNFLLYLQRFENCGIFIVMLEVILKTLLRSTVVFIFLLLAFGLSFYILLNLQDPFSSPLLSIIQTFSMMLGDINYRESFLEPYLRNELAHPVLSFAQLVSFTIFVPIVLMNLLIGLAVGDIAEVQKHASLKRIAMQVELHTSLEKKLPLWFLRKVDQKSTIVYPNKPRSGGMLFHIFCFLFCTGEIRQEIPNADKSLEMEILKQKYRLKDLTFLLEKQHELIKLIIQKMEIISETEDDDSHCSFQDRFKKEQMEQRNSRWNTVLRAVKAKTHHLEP
The test can be described thus: Intracellular calcium by FLIPR in CHO-K1 cells expressing human TRPA1 (activator screening). The conditions noted are these: CHO-K1 cells expressing human TRPA1; FLIPR, Fluo3-AM. The format is cell-based. (In general: Calcium assays in cells follow changes in intracellular calcium, usually with a dye or a luminescent sensor.)
Procedure: To detect the TRPA1 channel activity of a polypeptide consisting of the amino acid sequence shown by SEQ ID NO:2, the expression vector obtained in Example 1 above was transfected to animal cells, whereby the aforementioned protein was expressed.
Various test samples were added to CHO-K1 cells forced to is transiently express TRPA1 by the transfection operation of Example 2 above, and the resulting changes in intracellular calcium concentration were measured using FLIPR (Molecular Device).
To measure the changes in intracellular calcium concentration by FLIPR, the following pre-treatment was performed. First, an assay buffer for adding the fluorescent dye Fluo3-AM (DOJIN) to the cells, or for washing the cells just before performing the FLIPR assay, was prepared. To a solution prepared by adding 20 ml of 1M HEPES (pH 7.4) (Invitrogen) to 1000 ml of HBSS (Invitrogen) (hereinafter, HBSS/HEPES solution), 10 ml of a solution prepared by dissolving 710 mg of probenecid (Sigma) in 5 ml of 1N NaOH and then adding 5 ml of the HBSS/HEPES solution, was added and mixed, and this solution was used as the assay buffer. Next, 50 μg of Fluo3-AM was dissolved in 22 μl of DMSO (DOJIN), and an equal volume of 20% pluronic acid (Molecular Probes) was added and mixed, after which this mixture was added to 10.6 ml of the assay buffer supplemented with 105 μl of fetal bovine serum, whereby a fluorescent dye solution was prepared. […] After this pretreatment was performed, changes in intracellular calcium concentration after addition of the various test samples were measured with the FLIPR.
Compounds that activate a polypeptide consisting of the amino acid sequence shown by SEQ ID NO:2 (activators) were screened for. As an index of activation, calcium inflow in the cells was detected using a calcium-sensitive fluorescent reagent; specifically, the method described in Example 3 was used.

For another test, the system named is rat EC cells. The test can be described thus: Serotonin secretion from rat small intestine EC cells. Format: cell-based. The conditions noted are these: 45 minutes culture. The protocol: A Wistar rat (male, 8-week-old) was decapitated and exsanguinated, after which it was dissected and laparotomized with scissors, and the small intestine was extirpated. The inside of the lumen of the extirpated small intestine was washed with physiological saline, and about 20 mL of Buffer A (70 mM NaCl, 5 mM KCl, 20 mM NaHCO3, 0.5 mM NaH2PO4, 50 mM HEPES (pH 7.2), 11 mM glucose, 3 mM EDTA, 0.5% BSA, 0.05 mM dithiothreitol, 1 mg/mL N-acetyl-L-cysteine) was injected, after which both ends were closed, and the small intestine was allowed to stand in 37° C. incubated HBSS for 10 minutes. Thereafter, the Buffer A in the lumen of the small intestine was discarded, about 20 mL of Buffer A was injected again, and the small intestine was allowed to stand in 37° C. incubated HBSS for 10 minutes. Again, the Buffer A in the lumen of the small intestine was discarded, fresh Buffer A was injected, and the small intestine was allowed to stand in 37° C. incubated HBSS for 20 minutes, after which the lumen content was recovered. […]
Serotonin secretion activity in EC cells prepared by the method described in Example 9-(3) was measured by a method modified from the method of Example 14 above. […]
The serotonin content in the supernatant was measured using a commercially available serotonin immunoassay kit (Beckman). […]

Test [3] relates to RIN14B cells. The test can be described thus: Serotonin secretion from RIN14B cells (immunoassay). The format is cell-based, rat. The conditions noted are these: 20 minutes culture. As for the experimental part: After RIN14B cells in culture in a Petri dish were detached using a PBS containing 1 mM EDTA, they were sown to a 96-well plate and cultured for 2 days. The medium used was RPMI1640 (Invitrogen Japan K.K.) supplemented with 10% fetal bovine serum (ICN), 100 U/ml penicillin, and 100 μg/ml streptomycin. After the cells were once washed with Hanks' Balanced Salt Solutions (HBSS, Invitrogen) supplemented with 0.1% BSA and 10 μM fluoxetine (TOCRIS), each TRPA1 activator, previously diluted/prepared with the above-described HBSS, was added, and the RIN14B cells were cultured at 37° C. in the presence of 5% CO2 for 20 minutes. After the cultivation, the cell supernatant was recovered, and stored under freezing. The serotonin content in the supernatant was measured using a commercially available serotonin immunoassay kit (Beckman).

Test [4] deals with RIN14B cells. The test can be described thus: Channel activity in RIN14B cells using calcium-sensitive fluorescent reagent (FLIPR). Format: cell-based, rat. The conditions noted are these: RIN14B cells, Fluo3-AM. The protocol: RIN14B cells (5×10^4 cells), wherein the expression of TRPA1 was confirmed in Example 10, were incubated in the presence of a calcium-sensitive fluorescent reagent (Fluo3-AM; DOJINDO) at 37° C. for 1 hour to thereby incorporate the calcium-sensitive fluorescent reagent in the cells, after which the cells were washed with physiological saline to remove the calcium-sensitive fluorescent reagent that had not been incorporated in the cells. To the cells obtained, physiological saline supplemented with allyl isothiocyanate, cinnamic aldehyde, or acrolein was added; the fluorescence emitted by the cells was measured over time. The above-described measurements were performed using an automated fluorescence detection apparatus (FLIPR; Molecular Device). […] Ruthenium Red was added concurrently and a measurement was performed to determine whether or not calcium inflow in the cells was be inhibited.

In test [5] the test system is CHO-K1 cells not expressing the polypeptide shown by SEQ ID NO:2. Briefly: Intracellular calcium by FLIPR in negative control CHO-K1 cells. The format is cell-based. The conditions noted are these: CHO-K1 cells not expressing TRPA1.
Test [6] relates to dog digestive tract movement. Briefly: Dog digestive tract movement by strain gauge force transducer method.
The next test concerns mouse constipation model. Briefly: Loperamide-induced mouse constipation model (bead discharge time). The format is in vivo. The conditions noted are these: loperamide 0.3 mg/kg s.c., 0.01 to 1 mg/kg oral. As for the experimental part: Because loperamide, a μ opioid receptor agonist, induces convulsive contraction in the gut and causes a delay of gut transportation, this experimental system is thought to be an experimental model of constipation type irritable bowel syndrome.
Mice (ddY, male, 5-week-old, SLC) were fasted from afternoon of the day before the experiment; on the day of the experiment, the mice were acclimated to the measurement cage for 1 hour or more, after which loperamide, 0.3 mg/kg, was administered subcutaneously. […] The mouse was returned to the measurement cage, and time from awakening to discharge of the glass beads was measured.

Consider `C=CCN=C=S` [allyl isothiocyanate], for which, in test [1] (mouse ileum loop, 1,000 μg), the “water secretion accentuating action, 1,000 μg dose group” value is given as “significant water secretion accentuating action observed”. The results for the “water secretion from the gut” value in test [1] and in test [1] (listed as Allyl isothiocyanate) were “dose-dependently accentuated water secretion from the gut” and “concentration-dependently accentuated water secretion compared to the vehicle control”, respectively. Besides, the “change in intracellular calcium concentration” value in test [2] is recorded as “responded specifically (elevation of intracellular calcium concentration)”. Also, the “serotonin secretion from rat EC cells” value with rat EC cells is “significant serotonin secretion promoting activity was observed; also recorded: promoted the release of serotonin from the EC cells”. For the same compound, in the test with RIN14B cells [3], the “serotonin secretion from RIN14B cells” value is “serotonin secretion was promoted; also recorded: concentration-dependently promoted the release of serotonin”. In the test with RIN14B cells [4], the “elevation of fluorescence intensity (calcium inflow) in RIN14B cells” value is “an elevation of fluorescence intensity was detected”. Further, in test [5], the “elevation of fluorescence intensity in negative control cells” value was “none of these compounds produced an elevation of fluorescence intensity”. In addition, the “induction of GMC” value in test [6] (oral) is “induced GMC”. The “time after administration to induction of colon GMC (Giant migrating contraction)” value in test [6] (oral, 1, 10 mg/kg) was ≤ 10 min. Further, in test [6] (oral, just after administration), the stomach movement result is on record as “accentuated stomach movement just after administration”. In the test on mouse constipation model, the bead discharge time result is “dose-dependently ameliorated the delay of bead discharge time by loperamide; also recorded: concentration-dependently shortened bead discharge time compared to the vehicle control”.
